Source: ChEMBL document CHEMBL4507270 (2021)
Active and inactive are the calls of the source. The calls are words filed in the database; no cut-off is given here.

Experiments:
[1] = test system: Tyrosine-protein kinase ABL1 (Homo sapiens), P00519 [F317L]
[2] = test system: Epidermal growth factor receptor (Homo sapiens), P00533 [G719C]
[3] = molecular target: Serine/threonine-protein kinase/endoribonuclease IRE1 (Homo sapiens) (UniProt O75460)
[4] = test system: Mast/stem cell growth factor receptor Kit (Homo sapiens), P10721 [V559D,T670I]
[5] = molecular target: Cyclin-dependent kinase 19 (Homo sapiens) (UniProt Q9BWU1)
[6] = molecular target: Discoidin domain-containing receptor 2 (Homo sapiens) (UniProt Q16832)
[7] = molecular target: T1, Epithelial discoidin domain-containing receptor 1 (Homo sapiens, UniProt Q08345)
[8] = molecular target: Dual specificity protein kinase CLK3 (Homo sapiens) (UniProt P49761)
[9] = molecular target: Aurora kinase B (Homo sapiens) (UniProt Q96GD4)
[10] = molecular target: Activin receptor type-1 (Homo sapiens) (UniProt Q04771)
[11] = molecular target: Ephrin type-A receptor 8 (Homo sapiens) (UniProt P29322)
[12] = molecular target: Histamine H2 receptor (Homo sapiens) (UniProt P25021); conditions: Compound concentration 10.0 uM
[13] = molecular target: Ephrin type-B receptor 6 (Homo sapiens) (UniProt O15197)
[14] = molecular target: Ephrin type-A receptor 3 (Homo sapiens) (UniProt P29320)
[15] = molecular target: Phosphatidylinositol 3-kinase C2 domain-containing subunit gamma (Homo sapiens) (UniProt O75747)
[16] = molecular target: Mitogen-activated protein kinase kinase kinase 20 (Homo sapiens) (UniProt Q9NYL2)
[17] = test system: Epidermal growth factor receptor (Homo sapiens), P00533 [UNDEFINED MUTATION]
[18] = molecular target: Ephrin type-A receptor 2 (Homo sapiens) (UniProt P29317)
[19] = molecular target: Alpha-1D adrenergic receptor (Homo sapiens) (UniProt P25100); conditions: Compound concentration 10.0 uM
[20] = molecular target: Serine/threonine-protein kinase PAK 5 (Homo sapiens) (UniProt Q9P286)
[21] = molecular target: Bone morphogenetic protein receptor type-2 (Homo sapiens) (UniProt Q13873)
[22] = molecular target: Dual specificity protein kinase CLK1 (Homo sapiens) (UniProt P49759)
[23] = molecular target: Muscarinic acetylcholine receptor M2 (Homo sapiens) (UniProt P08172); conditions: Compound concentration 10.0 uM
[24] = molecular target: Sigma non-opioid intracellular receptor 1 (Homo sapiens) (UniProt Q99720); conditions: Compound concentration 10.0 uM
[25] = molecular target: RAF proto-oncogene serine/threonine-protein kinase (Homo sapiens) (UniProt P04049)
[26] = molecular target: T1, Epithelial discoidin domain-containing receptor 1; assay: NanoBRET assay (SGC Frankfurt) with DDR1
[27] = test system: Receptor-type tyrosine-protein kinase FLT3 (Homo sapiens), P36888 [D835H]
[28] = test system: Tyrosine-protein kinase ABL1 (Homo sapiens), P00519 [F317I]
[29] = molecular target: Mitogen-activated protein kinase kinase kinase kinase 5 (Homo sapiens) (UniProt Q9Y4K4)
[30] = molecular target: Receptor tyrosine-protein kinase erbB-4 (Homo sapiens) (UniProt Q15303)
[31] = test system: Receptor-type tyrosine-protein kinase FLT3 (Homo sapiens), P36888 [K663Q]
[32] = molecular target: Tyrosine-protein kinase CSK (Homo sapiens) (UniProt P41240)
[33] = molecular target: Serine/threonine-protein kinase 38 (Homo sapiens) (UniProt Q15208)
[34] = molecular target: Mitogen-activated protein kinase kinase kinase 5 (Homo sapiens) (UniProt Q99683)
[35] = molecular target: Serine/threonine-protein kinase SBK1 (Homo sapiens) (UniProt Q52WX2)
[36] = molecular target: Serine/threonine-protein kinase MRCK gamma (Homo sapiens) (UniProt Q6DT37)
[37] = molecular target: RAC-alpha serine/threonine-protein kinase (Homo sapiens) (UniProt P31749)
[38] = test system: Receptor-type tyrosine-protein kinase FLT3 (Homo sapiens), P36888 [R834Q]
[39] = molecular target: Phosphatidylinositol 5-phosphate 4-kinase type-2 beta (Homo sapiens) (UniProt P78356)
[40] = molecular target: Phosphatidylinositol 4-phosphate 5-kinase type-1 alpha (Homo sapiens) (UniProt Q99755)
[41] = molecular target: Dual specificity mitogen-activated protein kinase kinase 2 (Homo sapiens) (UniProt P36507)
[42] = molecular target: 5-hydroxytryptamine receptor 1D (Homo sapiens) (UniProt P28221); conditions: Compound concentration 10.0 uM
[43] = test system: Serine/threonine-protein kinase B-raf (Homo sapiens), P15056 [V600E]
[44] = molecular target: Dual specificity protein kinase CLK4 (Homo sapiens) (UniProt Q9HAZ1)
[45] = molecular target: Phosphatidylinositol 4,5-bisphosphate 3-kinase catalytic subunit alpha isoform (Homo sapiens) (UniProt P42336)
[46] = Compound concentration 1000.0 nM
[47] = Compound concentration 100.0 nM

T1 sequence (Q08345 whole entry, the tested form may be a part): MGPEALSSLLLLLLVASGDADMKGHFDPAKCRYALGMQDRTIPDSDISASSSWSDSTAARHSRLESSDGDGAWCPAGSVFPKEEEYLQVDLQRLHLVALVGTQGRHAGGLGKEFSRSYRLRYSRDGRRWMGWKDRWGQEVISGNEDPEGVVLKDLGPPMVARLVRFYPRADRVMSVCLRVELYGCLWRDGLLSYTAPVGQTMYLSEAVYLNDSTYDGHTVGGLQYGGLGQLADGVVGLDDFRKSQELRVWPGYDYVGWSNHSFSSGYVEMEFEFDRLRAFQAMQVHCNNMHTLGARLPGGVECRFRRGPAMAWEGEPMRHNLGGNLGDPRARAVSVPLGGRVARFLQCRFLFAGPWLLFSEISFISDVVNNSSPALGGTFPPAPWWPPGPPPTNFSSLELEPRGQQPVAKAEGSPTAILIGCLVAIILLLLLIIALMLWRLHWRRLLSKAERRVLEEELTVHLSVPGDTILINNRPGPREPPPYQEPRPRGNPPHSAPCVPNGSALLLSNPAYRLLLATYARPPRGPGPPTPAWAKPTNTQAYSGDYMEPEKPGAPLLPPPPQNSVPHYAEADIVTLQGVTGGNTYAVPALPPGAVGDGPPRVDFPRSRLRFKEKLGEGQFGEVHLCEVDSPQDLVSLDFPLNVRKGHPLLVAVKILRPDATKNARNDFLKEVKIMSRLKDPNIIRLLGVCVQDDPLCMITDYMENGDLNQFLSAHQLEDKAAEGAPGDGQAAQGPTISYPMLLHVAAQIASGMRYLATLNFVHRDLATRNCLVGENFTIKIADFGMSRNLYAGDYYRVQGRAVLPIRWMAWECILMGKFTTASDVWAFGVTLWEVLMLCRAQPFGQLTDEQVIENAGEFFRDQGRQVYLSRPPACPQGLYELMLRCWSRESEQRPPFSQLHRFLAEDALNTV
Chain of Phosphatidylinositol 5-phosphate 4-kinase type-2 beta (Homo sapiens) (P78356 whole entry): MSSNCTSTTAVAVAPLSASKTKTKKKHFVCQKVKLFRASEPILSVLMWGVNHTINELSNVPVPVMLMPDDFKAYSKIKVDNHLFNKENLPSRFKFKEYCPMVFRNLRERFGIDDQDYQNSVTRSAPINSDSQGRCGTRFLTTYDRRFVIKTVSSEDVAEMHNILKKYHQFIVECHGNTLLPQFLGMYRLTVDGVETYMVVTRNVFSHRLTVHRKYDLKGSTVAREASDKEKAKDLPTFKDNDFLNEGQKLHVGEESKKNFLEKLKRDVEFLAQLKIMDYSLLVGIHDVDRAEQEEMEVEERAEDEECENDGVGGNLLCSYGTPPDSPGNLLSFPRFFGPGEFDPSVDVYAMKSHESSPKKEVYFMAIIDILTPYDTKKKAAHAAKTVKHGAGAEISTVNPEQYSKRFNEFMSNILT
Chain of Serine/threonine-protein kinase B-raf (Homo sapiens), P15056 [V600E] (P15056 whole entry V600E): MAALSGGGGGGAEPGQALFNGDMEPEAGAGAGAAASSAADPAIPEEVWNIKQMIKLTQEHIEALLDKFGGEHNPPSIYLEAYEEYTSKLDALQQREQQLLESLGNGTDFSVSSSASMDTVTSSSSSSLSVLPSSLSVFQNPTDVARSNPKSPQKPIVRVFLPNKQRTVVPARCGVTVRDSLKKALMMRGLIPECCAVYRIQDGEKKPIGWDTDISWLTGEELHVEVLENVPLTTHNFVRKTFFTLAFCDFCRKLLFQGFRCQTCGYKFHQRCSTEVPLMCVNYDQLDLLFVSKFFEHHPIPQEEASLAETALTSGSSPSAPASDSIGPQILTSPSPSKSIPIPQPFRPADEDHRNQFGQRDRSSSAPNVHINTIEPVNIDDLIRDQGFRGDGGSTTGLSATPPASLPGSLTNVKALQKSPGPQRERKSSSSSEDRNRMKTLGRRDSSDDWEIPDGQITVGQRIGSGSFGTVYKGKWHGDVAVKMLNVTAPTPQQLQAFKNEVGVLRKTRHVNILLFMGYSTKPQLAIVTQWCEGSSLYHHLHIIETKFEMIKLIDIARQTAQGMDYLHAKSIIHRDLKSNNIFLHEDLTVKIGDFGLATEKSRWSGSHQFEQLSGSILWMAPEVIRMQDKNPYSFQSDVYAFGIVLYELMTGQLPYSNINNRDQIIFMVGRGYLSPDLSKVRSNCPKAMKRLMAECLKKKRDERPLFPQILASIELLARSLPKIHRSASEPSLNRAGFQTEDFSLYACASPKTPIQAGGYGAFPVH
Chain of Mitogen-activated protein kinase kinase kinase 5 (Homo sapiens) (Q99683 whole entry): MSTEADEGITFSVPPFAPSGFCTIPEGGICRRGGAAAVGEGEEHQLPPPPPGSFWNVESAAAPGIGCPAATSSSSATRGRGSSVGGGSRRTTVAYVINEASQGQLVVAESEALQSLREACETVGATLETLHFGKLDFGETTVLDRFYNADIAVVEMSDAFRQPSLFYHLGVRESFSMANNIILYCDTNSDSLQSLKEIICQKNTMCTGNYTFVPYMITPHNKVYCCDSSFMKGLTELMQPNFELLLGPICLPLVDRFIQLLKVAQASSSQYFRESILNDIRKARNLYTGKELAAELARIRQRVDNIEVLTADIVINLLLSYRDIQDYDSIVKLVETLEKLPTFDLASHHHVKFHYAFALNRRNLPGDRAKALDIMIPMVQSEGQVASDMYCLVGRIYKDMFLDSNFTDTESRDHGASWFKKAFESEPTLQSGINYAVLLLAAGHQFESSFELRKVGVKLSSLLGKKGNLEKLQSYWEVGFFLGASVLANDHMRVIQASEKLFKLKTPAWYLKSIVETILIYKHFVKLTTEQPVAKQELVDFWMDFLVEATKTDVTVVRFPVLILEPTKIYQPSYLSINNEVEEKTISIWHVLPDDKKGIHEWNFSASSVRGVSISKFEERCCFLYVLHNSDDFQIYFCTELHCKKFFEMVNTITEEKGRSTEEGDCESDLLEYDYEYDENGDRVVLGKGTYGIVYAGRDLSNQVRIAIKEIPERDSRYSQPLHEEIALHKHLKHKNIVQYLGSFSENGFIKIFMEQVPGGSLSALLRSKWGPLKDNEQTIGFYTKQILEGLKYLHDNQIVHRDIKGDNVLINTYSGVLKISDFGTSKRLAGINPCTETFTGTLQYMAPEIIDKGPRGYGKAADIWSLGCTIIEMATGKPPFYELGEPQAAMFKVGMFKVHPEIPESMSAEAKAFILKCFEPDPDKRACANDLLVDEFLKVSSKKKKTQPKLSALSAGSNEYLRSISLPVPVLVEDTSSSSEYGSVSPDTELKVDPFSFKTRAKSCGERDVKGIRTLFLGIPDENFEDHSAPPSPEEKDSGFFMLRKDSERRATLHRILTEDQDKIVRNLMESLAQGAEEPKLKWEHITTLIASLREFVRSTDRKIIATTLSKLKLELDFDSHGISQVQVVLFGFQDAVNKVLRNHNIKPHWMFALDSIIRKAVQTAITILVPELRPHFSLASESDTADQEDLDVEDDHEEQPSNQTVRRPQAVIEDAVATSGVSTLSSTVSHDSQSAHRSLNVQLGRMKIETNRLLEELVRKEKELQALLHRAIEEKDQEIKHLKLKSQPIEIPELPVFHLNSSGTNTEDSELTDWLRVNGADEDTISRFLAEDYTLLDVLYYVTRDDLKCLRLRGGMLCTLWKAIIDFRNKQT
Chain of Activin receptor type-1 (Homo sapiens) (Q04771 whole entry): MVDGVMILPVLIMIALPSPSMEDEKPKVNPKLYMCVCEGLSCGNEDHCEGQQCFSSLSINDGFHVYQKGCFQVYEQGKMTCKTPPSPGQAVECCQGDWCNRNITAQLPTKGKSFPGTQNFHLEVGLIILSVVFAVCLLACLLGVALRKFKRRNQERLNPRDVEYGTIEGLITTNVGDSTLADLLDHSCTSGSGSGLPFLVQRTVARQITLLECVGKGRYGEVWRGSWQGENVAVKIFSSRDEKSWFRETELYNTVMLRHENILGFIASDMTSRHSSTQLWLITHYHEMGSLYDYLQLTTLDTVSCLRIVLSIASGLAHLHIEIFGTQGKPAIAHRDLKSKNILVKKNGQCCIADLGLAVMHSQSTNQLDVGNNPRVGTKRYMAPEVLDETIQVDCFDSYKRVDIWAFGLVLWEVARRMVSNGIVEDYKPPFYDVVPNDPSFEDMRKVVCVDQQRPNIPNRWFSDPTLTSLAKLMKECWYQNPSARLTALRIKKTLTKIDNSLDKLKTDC
Chain of Serine/threonine-protein kinase PAK 5 (Homo sapiens) (Q9P286 whole entry, looked up): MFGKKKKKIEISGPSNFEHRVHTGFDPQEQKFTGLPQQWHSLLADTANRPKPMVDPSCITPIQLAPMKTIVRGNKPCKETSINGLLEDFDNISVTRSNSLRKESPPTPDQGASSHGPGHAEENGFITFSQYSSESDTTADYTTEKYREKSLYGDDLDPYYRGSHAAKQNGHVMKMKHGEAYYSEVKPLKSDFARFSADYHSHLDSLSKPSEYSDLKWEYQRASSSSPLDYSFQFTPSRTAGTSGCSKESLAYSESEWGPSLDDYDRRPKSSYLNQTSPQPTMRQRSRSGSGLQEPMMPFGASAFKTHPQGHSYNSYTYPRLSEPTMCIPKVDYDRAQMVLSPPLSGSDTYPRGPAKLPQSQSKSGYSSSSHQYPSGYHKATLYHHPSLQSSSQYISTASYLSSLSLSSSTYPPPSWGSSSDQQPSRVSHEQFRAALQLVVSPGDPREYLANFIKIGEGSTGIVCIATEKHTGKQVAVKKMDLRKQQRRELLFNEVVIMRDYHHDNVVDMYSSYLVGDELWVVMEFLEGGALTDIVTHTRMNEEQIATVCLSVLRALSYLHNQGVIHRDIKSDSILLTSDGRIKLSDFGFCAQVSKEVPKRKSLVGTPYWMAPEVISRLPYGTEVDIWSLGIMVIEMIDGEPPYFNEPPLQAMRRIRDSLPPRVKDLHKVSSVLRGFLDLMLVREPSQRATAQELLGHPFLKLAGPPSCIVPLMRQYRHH
Chain of 5-hydroxytryptamine receptor 1D (Homo sapiens) (P28221 whole entry): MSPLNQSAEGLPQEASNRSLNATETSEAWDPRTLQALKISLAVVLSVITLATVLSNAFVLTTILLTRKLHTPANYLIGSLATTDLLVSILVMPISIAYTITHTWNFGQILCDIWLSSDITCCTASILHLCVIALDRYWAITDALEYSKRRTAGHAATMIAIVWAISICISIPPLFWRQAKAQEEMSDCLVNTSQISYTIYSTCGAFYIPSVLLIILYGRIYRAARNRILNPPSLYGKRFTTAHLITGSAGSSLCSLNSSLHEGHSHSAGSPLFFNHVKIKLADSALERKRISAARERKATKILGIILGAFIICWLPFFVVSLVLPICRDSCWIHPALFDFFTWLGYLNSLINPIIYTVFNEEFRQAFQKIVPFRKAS

Structure (SMILES): Cc1cc(NC(=O)c2cccc(S(F)(F)(F)(F)F)c2)cc(-n2ccn3nc(-c4cccnc4)cc23)c1 [BAY-309]
- residual activity [1, 46]: 72.9%
- residual activity [2, 46]: 94.2%
- residual activity [3, 46]: 99.2%
- residual activity [4, 46]: 91.3%
- residual activity [5, 46]: 84.1%
- residual activity [6, 46]: 18.2%
- residual activity [7, 46]: 0%
- residual activity [8, 46]: 100%
- residual activity [9, 46]: 82%
- residual activity [10, 46]: 100%
- residual activity [11, 46]: 100%
- inhibition [12]: 46.1%
- residual activity [13, 46]: 100%
- residual activity [14, 46]: 100%
- residual activity [15, 46]: 100%
- residual activity [16, 46]: 84.4%
- residual activity [17, 46]: 98.7%
- residual activity [18, 46]: 100%
- inhibition [19]: 27.7%
- residual activity [20, 46]: 100%
- residual activity [21, 46]: 59.3%
- residual activity [22, 46]: 100%
- inhibition [23]: 32.7%
- inhibition [24]: 19.3%
- residual activity [25, 46]: 29.4%
- EC50 [26]: 200 nM (not active)
- IC50 [26]: 340 nM (not active)
- residual activity [27, 46]: 99.9%
- residual activity [28, 46]: 100%
- residual activity [29, 46]: 100%
- residual activity [30, 46]: 98.1%
- residual activity [31, 46]: 100%
- residual activity [32, 46]: 100%
- residual activity [33, 46]: 92.3%
- residual activity [34, 46]: 100%
- residual activity [35, 46]: 100%
- residual activity [36, 46]: 100%
- residual activity [37, 46]: 100%
- residual activity [38, 46]: 100%
- residual activity [39, 46]: 100%
- residual activity [40, 46]: 100%
- residual activity [41, 46]: 93.3%
- inhibition [42]: 15.4%
- residual activity [43, 46]: 24.4%
- residual activity [44, 46]: 100%
- residual activity [45, 46]: 100%

Structure (SMILES): Cc1cc(C)c(-n2ccn3nc(-c4cccnc4)cc23)cc1NC(=O)c1cc(C#N)cc(S(F)(F)(F)(F)F)c1 [BAY-826]
- residual activity [1, 47]: 63.3%
- residual activity [2, 47]: 91.6%
- residual activity [3, 47]: 68.3%
- residual activity [4, 47]: 67.9%
- residual activity [5, 47]: 90.7%
- residual activity [6, 47]: 1.8%
- residual activity [7, 47]: 0.1%
- residual activity [8, 47]: 87.7%
- residual activity [9, 47]: 98.8%
- residual activity [10, 47]: 83.3%
- residual activity [11, 47]: 83.5%
- inhibition [12]: 25.6%
- residual activity [13, 47]: 3%
- residual activity [14, 47]: 89.8%
- residual activity [15, 47]: 60.7%
- residual activity [16, 47]: 97.5%
- residual activity [17, 47]: 78.7%
- residual activity [18, 47]: 79.6%
- inhibition [19]: -2.46%
- residual activity [20, 47]: 83.5%
- residual activity [21, 47]: 89.4%
- residual activity [22, 47]: 96.2%
- inhibition [23]: 10.5%
- inhibition [24]: -4.84%
- residual activity [25, 47]: 83.8%
- EC50 [26]: 1.5 nM (active)
- IC50 [26]: 0.9 nM (active)
- residual activity [27, 47]: 87.8%
- residual activity [28, 47]: 65.8%
- residual activity [29, 47]: 83.4%
- residual activity [30, 47]: 96.3%
- residual activity [31, 47]: 100%
- residual activity [32, 47]: 77.9%
- residual activity [33, 47]: 80.4%
- residual activity [34, 47]: 100%
- residual activity [35, 47]: 82.2%
- residual activity [36, 47]: 88.8%
- residual activity [37, 47]: 90.9%
- residual activity [38, 47]: 62.3%
- residual activity [39, 47]: 52.2%
- residual activity [40, 47]: 95%
- residual activity [41, 47]: 74.4%
- inhibition [42]: 9.27%
- residual activity [43, 47]: 100%
- residual activity [44, 47]: 93.3%
- residual activity [45, 47]: 87.9%
